Legend:
Type in all cases: in vivo, human
[1] = Example 3: Phase 1 study of ketoconazole 200 mg twice daily with mifepristone 600 mg once daily with food, plasma PK incl. cross-study comparison; conditions: for mean increase / change in exposure on co-administration with ketoconazole: 600 mg mifepristone once daily with 200 mg ketoconazole twice daily; for effect of ketoconazole on exposure (90% CI vs standard 80:125 interval): Day 17 vs Day 12; for concentrations on Day 17 compared with Day 12: Day 17 with 200 mg ketoconazole twice daily, Day 12 mifepristone alone; for AUC0-24 Ratio % Test/Ref (cross-study, geometric mean ratio) / Cmax Ratio % Test/Ref (cross-study, geometric mean ratio): Test: Present Study Day 17 600 mg mifepristone OD + 200 mg Ketoconazole BID, Reference: Historic Study Day 7 1200 mg mifepristone OD alone, after 34% fat meal
[2] = Example 2: effect of a 400 mg single dose of ketoconazole on PK of an 8-day regimen of 300 mg or 600 mg OD mifepristone, moderate fat breakfast
Protocol: This was an open-label study in healthy male subjects. […] The 400 mg single dose of ketoconazole was given to all subjects on day 8.
METHODOLOGY: Twelve subjects were enrolled, six in Cohort 1 and 6 in Cohort 2.
Subjects were discharged on Day 11.
Subjects were discharged on Day 11. Subjects in both cohorts returned to study center on Day 13 for safety monitoring, collection of the 120-hour PK draw, and completion of the Termination Visit procedures, followed by discharge from the study. To the extent possible, any adverse events deemed study drug-related and that were ongoing at the time of discharge from the study were followed-up to resolution or until a determination was made that the unresolved event was stable.
DIAGNOSIS AND MAIN […] FOR INCLUSION: Healthy male volunteers between the ages of 18 to 45 years of age with a body mass index (BMI) ranging between 19 and 32 kg/m2 and a weight of at least 60 kg (132 lbs) were enrolled. Subjects had no clinically significant abnormal findings on the physical examination, ECG, blood pressure, heart rate, medical history, or clinical laboratory results during screening. The QTc interval at screening was less than 450 msec.
DURATION OF TREATMENT: Up to a total of 28 days, including up to 2 weeks screening, dosing on Days 1-8, safety observation, and PK sample collection through Day 13.
Additionally, comparisons were made between the PK results of cohort 1 and 2. Pharmacokinetic parameters Cmax, T1/2 and total AUC were calculated for plasma concentrations of ketoconazole following the single dose on Day 8. Descriptive statistics (count, mean, median, standard deviation, minimum, maximum, and % coefficient of variation) were provided. Ketoconazole concentrations were listed and summarized. GM means of Cmax and total AUC were compared for the single dose in this study to the combined data of reported 400 mg single doses of ketoconazole of healthy subjects from the literature.

[3] = Example 1: safety (adverse events, laboratory tests, ECG); conditions: mifepristone 300 mg single dose with ketoconazole for 14 days
Protocol: In cohort 1, six subjects received ketoconazole 400 mg OD for 14 days.
In cohort 2, six subjects received ketoconazole 200 mg BID for 14 days. […] All 12 subjects completed the study. Cohort 2 subjects participated in a Screening visit to assess eligibility and a check-in Day (Day −1) during which eligibility was re-confirmed. […] The evening of Day 1, subjects received 200 mg oral ketoconazole. Subjects remained in the clinic on Days 2, 3 and 4 to receive 200 mg BID oral ketoconazole, and for safety evaluation and collection of blood pharmacokinetic (PK) samples. Subjects were discharged from the clinic on Day 4 following evening administration of 200 mg oral ketoconazole, and returned to the clinic the morning and evening of Days 5 through 13 to receive 200 mg BID oral ketoconazole. Morning doses of ketoconazole on Days 0-13 were administered in the fasted state.
Subjects in both cohorts returned to the study center on Day 15 for safety monitoring, and completion of the Termination Visit procedures, followed by discharge from the study. Safety was assessed by spontaneously reported adverse events, physical examinations, and routine clinical laboratory tests. To the extent possible, any adverse events deemed study drug-related and that were ongoing at the time of discharge from the study were followed-up to resolution or until a determination is made that the unresolved event was stable.

[4] = Test: Day 17 600 mg mifepristone OD + 200 mg Ketoconazole BID, Reference: Day 12 600 mg mifepristone OD
[5] = single 400 mg ketoconazole dose on Day 8
[6] = 400 mg ketoconazole (200 mg twice per day) concomitantly with 600 mg mifepristone per day, fifth day
[7] = Test: Day 17 600 mg mifepristone OD + 200 mg Ketoconazole BID, Reference: Day −1 200 mg Ketoconazole Single Dose

Row | SMILES | mean increase / change in exposure on co-administration with ketoconazole [1] | effect of ketoconazole on exposure (90% CI vs standard 80:125 interval) [1] | concentrations on Day 17 compared with Day 12 [1] | AUC0-24 Ratio % Test/Reference (geometric mean ratio) [1, 4] [%] | Cmax Ratio % Test/Reference (geometric mean ratio) [1, 4] [%] | AUC0-24 Ratio % Test/Ref (cross-study, geometric mean ratio) [1] [%] | Cmax Ratio % Test/Ref (cross-study, geometric mean ratio) [1] [%] | mean metabolite exposure compared with mifepristone ([2]; 300 or 600 mg OD mifepristone, Days 7-13) | share of total steady-state AUC0-24 of mifepristone, RU42633, RU42698, RU42848 ([1]; in the presence of ketoconazole) [%] | share of total steady-state AUC0-24 of mifepristone, RU42633, RU42698, RU42848 ([1]; mifepristone alone) [%] | AUCinf higher on 600 mg OD mifepristone regimen relative to 300 mg OD [2, 5] [%] | Cmax higher on 600 mg OD mifepristone regimen relative to 300 mg OD [2, 5] [%] | half-life on either mifepristone regimen ([2]; single 400 mg ketoconazole dose on Day 8, mifepristone 300 vs 600 mg OD) | increase in ketoconazole AUC [1, 6] [%] | increase in ketoconazole Cmax [1, 6] [%] | AUC Ratio % Test/Reference (geometric mean ratio) [1, 7] [%] | Cmax Ratio % Test/Reference (geometric mean ratio) [1, 7] [%] | TEAEs considered by the investigator to be related to the drug [3]
1 | CC#C[C@]1(O)CC[C@H]2[C@@H]3CCC4=CC(=O)CCC4=C3[C@@H](c3ccc(NC)cc3)C[C@@]21C [RU 42633, (8S,11R,13S,14S,17S)-17-hydroxy-13-methyl-11-[4-(methylamino)phenyl]-17-prop-1-ynyl-1,2,6,7,8,11,12,14,15,16-decahydrocyclopenta[a]phenanthren-3-one] | little change | not affected | similar | 102.33 | 105.73 | 91.34 | 96.31 |  |  |  |  |  |  |  |  |  |  | 
2 | CN(C)c1ccc([C@H]2C[C@@]3(C)[C@@H](CC[C@@]3(O)C#CCO)[C@@H]3CCC4=CC(=O)CCC4=C32)cc1 [RU 42698, (8S,11R,13S,14S,17S)-11-[4-(dimethylamino)phenyl]-17-hydroxy-17-(3-hydroxyprop-1-ynyl)-13-methyl-1,2,6,7,8,11,12,14,15,16-decahydrocyclopenta[a]phenanthren-3-one] | approximately 70% | increased | higher | 166.86 | 169.13 | 118.18 | 116.55 | lower | 13 | 9 |  |  |  |  |  |  |  | 
3 | CC(=O)N1CCN(c2ccc(OCC3COC(Cn4ccnc4)(c4ccc(Cl)cc4Cl)O3)cc2)CC1 (centres unmarked) [ketoconazole, 1-acetyl-4-[4-[[2-(2,4-dichlorophenyl)-2-[(1H-imidazol-1-yl)-methyl]-1,3-dioxolan-4-yl]methoxy]phenyl]piperazine] |  |  |  |  |  |  |  |  |  |  | 36 | 37 | not appreciably different | 253 | 365 | 365.36 | 252.71 | One TEAE of insomnia
4 | CC#C[C@]1(O)CC[C@H]2[C@@H]3CCC4=CC(=O)CCC4=C3[C@@H](c3ccc(N)cc3)C[C@@]21C [RU 42848, (8S,11R,13S,14S,17S)-11-(4-aminophenyl)-17-hydroxy-13-methyl-17-prop-1-ynyl-1,2,6,7,8,11,12,14,15,16-decahydrocyclopenta[a]phenanthren-3-one] | little change | not affected | similar | 94.88 | 95.48 | 81.43 | 82.45 |  |  |  |  |  |  |  |  |  |  | 
